Structures can show the parent of a compound that is named as a salt. Where two headings read alike, the source gives them in different places. Blank lines part the entries; values can stand above or below the molecule they belong to.
How the values were obtained:
blood glucose level = assay: Hypoglycemic activity in obese diabetic mice (Table 1); type: in vivo, male viable yellow obese-diabetic mice; conditions: for response vs control in vivo at 50 mg/kg / response vs control in vivo at 100 mg/kg: Mus musculus, ip; for ability to lower blood glucose levels in mammals: compared to structurally similar compounds known in the art, in words
Procedure: The hypoglycemic activity of the compounds of the present invention was determined by testing the efficacy of the compounds in vivo in male viable yellow obese-diabetic mice. The test procedure is described in detail below.
Test formulations were prepared by dissolving the test compound in a saline solution containing 2% Emulphor (a polyoxyethylated vegetable oil surfactant from GAP Corp.) to provide the dose level desired. Each test formulation was administered to six viable yellow obese-diabetic mice intraperitoneally at the beginning of the experiment. Blood glucose levels were determined immediately before the first dose and at 2 and 4 hours thereafter using glucose oxidase. A mean was taken of the 6 values obtained before the first dose and at the 2 and 4 hour intervals. In Table 1, Column 1 provides the example number of the test compound, Column 2 provides the dose level of compound tested, and Columns 3 and 4 provide a measurement of the test animal's blood glucose level 2 and 4 hours after test compound administration, respectively, as a percentage of the test animal' s pre-administration blood glucose level.

Human liver cathepsin D = target: T1, Human liver cathepsin D (Homo sapiens, UniProt P07339); assay: Cathepsin D inhibition, fluorometric assay (Tables 5 and 6); type: biochemical; conditions: for inhibition at 4.15 µg/mL (stock): Compound Stock Concentration 4.15 μg/ml; for inhibition at 8.3 µg/mL (stock): Compound Stock Concentration 8.3 μg/ml; for ability to inhibit cathepsin D: compared to structurally similar compounds known in the art, in words; for inhibition at 10 µg/mL (stock): Compound Stock Concentration 10.0 μg/ml
T1 construct: purchased Athens Research and Technology, Athens, Ga; host or cells: human liver
T1 sequence (P07339 169-412 limits assumed): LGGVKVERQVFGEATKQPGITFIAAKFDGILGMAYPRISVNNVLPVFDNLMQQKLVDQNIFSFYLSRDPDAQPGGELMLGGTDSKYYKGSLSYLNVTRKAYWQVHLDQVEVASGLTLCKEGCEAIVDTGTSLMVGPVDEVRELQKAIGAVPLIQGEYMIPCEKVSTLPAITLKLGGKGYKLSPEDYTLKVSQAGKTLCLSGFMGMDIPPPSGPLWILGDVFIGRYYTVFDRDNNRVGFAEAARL
T1 sequence (P07339 65-161 limits assumed): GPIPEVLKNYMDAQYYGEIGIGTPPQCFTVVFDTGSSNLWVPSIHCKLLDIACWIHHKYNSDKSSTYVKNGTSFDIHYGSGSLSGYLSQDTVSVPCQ
Procedure: Human liver cathepsin D (Athens Research and Technology, Athens, Ga.) was diluted in assay buffer, 200 mM NaOAc, pH 4.5, 150 mM NaCl to 500 ng/mL and then 100 μL of this cathepsin D solution was added to each well of a 96 well plate with the exception of control wells which received just 100 μL of assay buffer. […] Blank and enzyme control wells each received 5 μL of the DMSO vehicle.
After incubation at 37° C. for 30 minutes, cathepsin D activity was terminated by the addition of 100 μL per well of 400 mU/mL microsomal leucine aminopeptidase (EC 3.4.11.2, Sigma, St. Louis, Mo.) in 1M Tris-HCl, pH 8.0.
Following a two hour incubation at 37° C., to allow the aminopeptidase to release the fluorophore, 7-amido-4-methylcoumarin (AMC) from the products of cathepsin D cleavage, the plates were again analyzed in the fluorometer. In order to check for potential false positives, i.e., inhibitors of microsomal leucine aminopeptidase, residual aminopeptidase activity was monitored directly in each well by the addition of 20 μL/well of 2.5 mM Leu-pNA (Bachem Biosciences, Philadelphia, Pa.) in 10% DMSO.

[1] = 2 h, 50 mg/kg, intraperitoneal, 2 hrs, read-out: Percent of Initial Blood Glucose Level After 2 hrs.
[2] = 4 h, 50 mg/kg, intraperitoneal, 4 hrs, read-out: Percent of Initial Blood Glucose Level After 4 hrs.

SMILES: O=C1NC(=S)SC1=Cc1ccc(Cl)c(Cl)c1 [Example 36, 5-[(3,4-dichlorophenyl)methylene]-2-thioxo-4-thiazolidinone]
- response vs control in vivo at 50 mg/kg (blood glucose level; [1]): 81 ± 7%
- response vs control in vivo at 50 mg/kg (blood glucose level; [2]): 90 ± 8%

SMILES: O=C1NC(=S)SC1=Cc1ccc(C(=O)O)cc1 [Example 37, 4-[(2-thioxo-4-thiazolidinone)methylene]benzoic acid]
- response vs control in vivo at 50 mg/kg (blood glucose level; [1]): 89 ± 4%
- response vs control in vivo at 50 mg/kg (blood glucose level; [2]): 80 ± 4%

SMILES: O=C1NC(=S)SC1=Cc1c[nH]c2ccccc12 [Example 39, 5-[(1H-indol-3-yl)methylene]-2-thioxo-4-thiazolidinone]
- response vs control in vivo at 50 mg/kg (blood glucose level; [1]): 83 ± 4%
- response vs control in vivo at 50 mg/kg (blood glucose level; [2]): 76 ± 4%

SMILES: COc1ccc(C=C2SC(=S)NC2=O)cc1O [Example 40, 5-[(3-hydroxy-4-methoxyphenyl)methylene]-2-thioxo-4-thiazolidinone]
- response vs control in vivo at 50 mg/kg (blood glucose level; [1]): 78 ± 5%
- response vs control in vivo at 50 mg/kg (blood glucose level; [2]): 72 ± 4%

SMILES: O=C1NC(=S)SC1=Cc1ccc([N+](=O)[O-])c(O)c1 [Example 43, 5-[(3-hydroxy-4-nitrophenyl)methylene]-2-thioxo-4-thiazolidinone]
- response vs control in vivo at 50 mg/kg (blood glucose level; [1]): 92 ± 7%
- response vs control in vivo at 50 mg/kg (blood glucose level; [2]): 88 ± 4%

SMILES: CC(=C1SC(=S)NC1=O)c1cccc(O)c1 [Example 44, 5-[(3-hydroxyphenyl)methylmethylene]-2-thioxo-4-thiazolidinone]
- Percent of Initial Blood Glucose Level After 2 hrs. (blood glucose level; 50 mg/kg, intraperitoneal, 2 hrs): 98 ± 4%
- Percent of Initial Blood Glucose Level After 4 hrs. (blood glucose level; 50 mg/kg, intraperitoneal, 4 hrs): 88 ± 5%

SMILES: CCOc1ccc(C=C2SC(=S)NC2=O)cc1O [Example 46, 5-[(3-hydroxy-4-ethoxyphenyl)methylene]-2-thioxo-4-thiazolidinone]
- response vs control in vivo at 50 mg/kg (blood glucose level; [1]): 79 ± 4%
- response vs control in vivo at 50 mg/kg (blood glucose level; [2]): 77 ± 5%

SMILES: CCCOc1ccc(C=C2SC(=S)NC2=O)cc1OCCC [Example 51, 5-[(3,4-dipropoxyphenyl)methylene]-2-thioxo-4-thiazolidinone]
- response vs control in vivo at 50 mg/kg (blood glucose level; [1]): 89 ± 7%
- response vs control in vivo at 50 mg/kg (blood glucose level; [2]): 85 ± 8%

SMILES: CCCCOc1ccc(C=C2SC(=S)NC2=O)cc1OC [Example 52, 5-[(3-methoxy-4-butoxyphenyl)methylene]-2-thioxo-4-thiazolidinone, sodium salt]
- response vs control in vivo at 50 mg/kg (blood glucose level; 4 h, read-out: Percent of Initial Blood Glucose Level After 4 hrs., 50 mg/kg, intraperitoneal, 4 hrs): 61 ± 4%

SMILES: CC(C)(C)c1cc(C=C2SC(=S)N(CC(=O)O)C2=O)cc(C(C)(C)C)c1O [Example 53, 5-[[3,5-bis(1,1-dimethylethyl)-4-hydroxyphenyl]methylene]-4-oxo-2-thioxo-3-thiazolidine acetic acid]
- response vs control in vivo at 50 mg/kg (blood glucose level; [1]): 73 ± 4%
- response vs control in vivo at 100 mg/kg (blood glucose level; 2 h, intraperitoneal, 2 hrs, read-out: Percent of Initial Blood Glucose Level After 2 hrs.): 83 ± 9%
- response vs control in vivo at 50 mg/kg (blood glucose level; [2]): 55 ± 5%
- response vs control in vivo at 100 mg/kg (blood glucose level; 4 h, intraperitoneal, 4 hrs, read-out: Percent of Initial Blood Glucose Level After 4 hrs.): 80 ± 14%
- ability to lower blood glucose levels in mammals (blood glucose level): surprising ability to lower blood glucose levels in mammals

SMILES: CCCCOc1ccc(CC2SC(=S)NC2=O)cc1OC (centres unmarked) [Example 54, 5-[(3-methoxy-4-butoxyphenyl)methyl]-2-thioxo-4-thiazolidinone]
- response vs control in vivo at 50 mg/kg (blood glucose level; [1]): 76 ± 7%
- response vs control in vivo at 50 mg/kg (blood glucose level; [2]): 74 ± 6%

SMILES: CCC(C)c1cc(C=C2SC(=S)N(CC(=O)O)C2=O)cc(C(C)CC)c1O (centres unmarked) [Example 59, 5-[[3,5-bis(1-methylpropyl)-4-hydroxyphenyl]methylene]-4-oxo-2-thioxo-3-thiazolidine acetic acid]
- response vs control in vivo at 50 mg/kg (blood glucose level; [1]): 62 ± 5%
- response vs control in vivo at 50 mg/kg (blood glucose level; [2]): 59 ± 9%
- ability to lower blood glucose levels in mammals (blood glucose level): surprising ability to lower blood glucose levels in mammals

- IC50 (Human liver cathepsin D; 50% inhibition of cathepsin D): 1.7 µM
- inhibition at 4.15 µg/mL (stock) (Human liver cathepsin D): 88%
- inhibition at 8.3 µg/mL (stock) (Human liver cathepsin D): 96%
SMILES: CCOc1cc(C=C2SC(=S)NC2=O)cc(CSc2ccccc2)c1O [Example 72]

- IC50 (Human liver cathepsin D; 50% inhibition of cathepsin D): 9.9 µM
- inhibition at 4.15 µg/mL (stock) (Human liver cathepsin D): 69%
- inhibition at 8.3 µg/mL (stock) (Human liver cathepsin D): 76%
SMILES: CCOc1cc(C=C2SC(=S)N(C)C2=O)cc(CSc2ccccc2)c1O [Example 73]

- IC50 (Human liver cathepsin D; 50% inhibition of cathepsin D): 5.8 µM
- inhibition at 8.3 µg/mL (stock) (Human liver cathepsin D): 95%
SMILES: CCOc1cc(C=C2SC(=S)N(CC(=O)O)C2=O)cc(CSc2ccccc2)c1O [Example 74, 5-[[3-ethoxy-4-hydroxy-5-(methylthiophenyl)phenyl]methylene]-4-oxo-2-thioxo-3-thiazolidine acetic acid]
- ability to inhibit cathepsin D (Human liver cathepsin D): surprising ability to inhibit cathepsin D levels

- inhibition at 10 µg/mL (stock) (Human liver cathepsin D): 43%
SMILES: O=C1NC(=S)SC1=Cc1cccc2ccccc12 [Example 75, 5-[(1-naphthyl)methylene]-2-thioxo-4-thiazolidinone]

- inhibition at 10 µg/mL (stock) (Human liver cathepsin D): 32%
SMILES: CC(=C1SC(=S)NC1=O)c1ccc2ccccc2c1 [Example 76, 5-[(2-naphthyl)methylmethylene]-2-thioxo-4-thiazolidinone]

- IC50 (Human liver cathepsin D): 22.1 µM
- inhibition at 4.15 µg/mL (stock) (Human liver cathepsin D): 41%
SMILES: CC(=C1SC(=S)NC1=O)c1cccc(Oc2ccccc2)c1 [Example 78, 5-[(3-phenoxyphenyl)methylmethylene]-2-thioxo-4-thiazolidinone]

SMILES: CCCCCCCOc1ccc(C=C2SC(=S)N(N)C2=O)cc1OC [Example 80, 5-[(3-methoxy-4-heptoxyphenyl)methylene]-2-thioxo-3-amino-4-thiazolidinone]
- IC50 (Human liver cathepsin D): 47 µM
- inhibition at 8.3 µg/mL (stock) (Human liver cathepsin D): 33%

- inhibition at 10 µg/mL (stock) (Human liver cathepsin D): 73.5%
SMILES: CN(C)c1ccc(C=C2SC(=S)NC2=O)cc1 [Example 82, 5-[[4-(dimethylamino)phenyl]methylene]-2-thioxo-4-thiazolidinone]

SMILES: CCCCCCCOc1ccc(C=C2SC(=S)N(N(C)C)C2=O)cc1 [Example 83, 5-[(4-heptoxyphenyl)methylene]-2-thioxo-3-dimethylamino-4-thiazolidinone]
- inhibition at 4.15 µg/mL (stock) (Human liver cathepsin D): 47%

- inhibition at 4.15 µg/mL (stock) (Human liver cathepsin D): 51%
SMILES: CCOc1cc(C=C2SC(=S)N(C3CCCCC3)C2=O)ccc1O [Example 84, 5-[(3-ethoxy-4-hydroxyphenyl)methylene]-2-thioxo-3-cyclohexyl-4-thiazolidinone]

- IC50 (Human liver cathepsin D): 14.3 µM
SMILES: CN1C(=O)C(=Cc2cc(C(C)(C)C)c(O)c(C(C)(C)C)c2)SC1=S [Example 85, 5-[[3,5-bis(1,1-dimethylethyl)-4-hydroxyphenyl]methylene]-2-thioxo-3-methyl-4-thiazolidinone]

- inhibition at 8.3 µg/mL (stock) (Human liver cathepsin D): 42%
SMILES: CS(=O)(=O)Nc1cccc(C=C2SC(=S)N(CC(=O)O)C2=O)c1 [Example 86, 5-[(3-methanesulfonamidophenyl)methylene]-4-oxo-2-thioxo-3-thiazolidine acetic acid]

- IC50 (Human liver cathepsin D): 2.2 µM
SMILES: COc1c(C(C)(C)C)cc(C=C2SC(=S)NC2=O)cc1C(C)(C)C [Example 87, 5-[[3,5-bis(1,1-dimethylethyl)-4-methoxyphenyl]methylene]-2-thioxo-4-thiazolidinone]

- IC50 (Human liver cathepsin D): 11.2 µM
- inhibition at 4.15 µg/mL (stock) (Human liver cathepsin D): 67%
- inhibition at 8.3 µg/mL (stock) (Human liver cathepsin D): 82%
SMILES: CCOc1cc(C=C2SC(=S)N(C)C2=O)ccc1O [Example 88, 5-[(3-ethoxy-4-hydroxyphenyl)methylene]-2-thioxo-3-methyl-4-thiazolidinone]
- ability to inhibit cathepsin D (Human liver cathepsin D): surprising ability to inhibit cathepsin D levels

- IC50 (Human liver cathepsin D; 50% inhibition of cathepsin D): 9.2 µM
- inhibition at 8.3 µg/mL (stock) (Human liver cathepsin D): 71%
SMILES: CCOc1cc(C=C2SC(=S)N(N(C)C)C2=O)cc(CSc2ccccc2)c1O [Example 89]

- IC50 (Human liver cathepsin D): 7.7 µM
- inhibition at 4.15 µg/mL (stock) (Human liver cathepsin D): 79%
- inhibition at 8.3 µg/mL (stock) (Human liver cathepsin D): 92%
SMILES: CCOc1cc(C=C2SC(=S)N(N(C)C)C2=O)ccc1O [Example 90, 5-[(3-ethoxy-4-hydroxyphenyl)methylene]-2-thioxo-3-dimethylamino-4-thiazolidinone]
- ability to inhibit cathepsin D (Human liver cathepsin D): surprising ability to inhibit cathepsin D levels

SMILES: CCCCCOc1ccc(C=C2SC(=S)N(CC(=O)O)C2=O)cc1OCCCCC [Example 91, 5-[(3,4-dipentoxyphenyl)methylene]-4-oxo-2-thioxo-3-thiazolidine acetic acid]
- IC50 (Human liver cathepsin D): 9.7 µM
- inhibition at 4.15 µg/mL (stock) (Human liver cathepsin D): 72%
- ability to inhibit cathepsin D (Human liver cathepsin D): surprising ability to inhibit cathepsin D levels

- IC50 (Human liver cathepsin D): 3.9 µM
- inhibition at 4.15 µg/mL (stock) (Human liver cathepsin D): 74%
SMILES: CN1C(=O)C(=Cc2ccc(O)c(C(C)(C)C)c2)SC1=S [Example 92, 5-[[3-(1,1-dimethylethyl)-4-hydroxyphenyl]methylene]-2-thioxo-3-methyl-4-thiazolidinone]
- ability to inhibit cathepsin D (Human liver cathepsin D): surprising ability to inhibit cathepsin D levels

SMILES: CCCCCCCOc1ccc(C=C2SC(=S)N(N(C)C)C2=O)cc1OCCCCCCC [Example 93, 5-[(3,4-diheptoxyphenyl)methylene]-2-thioxo-3-dimethylamino-4-thiazolidinone]
- IC50 (Human liver cathepsin D): 7.5 µM
